In brackets after ≈: the same amount, converted by molar mass.
How the values were obtained:
K.pneumoniae DT-S = assay: In vitro antibacterial activity (MIC), Japan Society of Chemotherapy Standard; format: cell-based; conditions: Klebsiella pneumoniae; inoculated cells 10⁶ cells/ml
Procedure: (§1) The in vitro antibacterial activity (minimum inhibitory concentration, MIC, µg/ml) of the test compounds was determined according to Japan Society of Chemotherapy Standard [Chemotherapy, vol. 29, pp 76-79 (1981)].
(§2) Inoculated cells were 10⁶ cells/ml and the strain with * was incubated in a medium supplemented with 10% horse blood. The mark "1)" means quinolone resistant MRSA and "2)" means quinolone resistant bacteria.

P.aeruginosa U-31 = assay: as above; format: cell-based; conditions: Pseudomonas aeruginosa, U31; inoculated cells 10⁶ cells/ml
Procedure: as §1, §2

[1] = system: Serratia marcescens IFO 12648; assay: as above; format: cell-based; conditions: IFO12648, inoculated cells 10⁶ cells/ml
Procedure: as §1, §2

[2] = system: Enterobacter cloacae IFO 12937; assay: as above; format: cell-based; conditions: IFO12937, inoculated cells 10⁶ cells/ml
Procedure: as §1, §2

S. aureus No.88 = assay: as above; format: cell-based; conditions: Staphylococcus aureus; quinolone resistant MRSA; inoculated cells 10⁶ cells/ml
Procedure: as §1, §2

[3] = system: S. epidermidis ATCC 12228; assay: as above; format: cell-based; conditions: Staphylococcus epidermidis, ATCC12228; inoculated cells 10⁶ cells/ml
Procedure: as §1, §2

[4] = system: A.calcoaceticus IFO 13006; assay: as above; format: cell-based; conditions: Acinetobacter calcoaceticus, IFO13006; inoculated cells 10⁶ cells/ml
Procedure: as §1, §2

[5] = system: Proteus vulgaris IFO 3988; assay: as above; format: cell-based; conditions: IFO3988, inoculated cells 10⁶ cells/ml
Procedure: as §1, §2

[6] = system: Enterococcus faecalis LS-101; assay: as above; format: cell-based; conditions: LS101, inoculated cells 10⁶ cells/ml
Procedure: as §1, §2

[7] = system: Escherichia coli NIHJ JC-2; assay: as above; format: cell-based; conditions: NIHJJC2, inoculated cells 10⁶ cells/ml
Procedure: as §1, §2

[8] = system: Streptococcus pyogenes C-203; assay: as above; format: cell-based; conditions: C203, inoculated cells 10⁶ cells/ml, medium supplemented with 10% horse blood
Procedure: as §1, §2

L.monocytogenes VTU-206 = assay: as above; format: cell-based; conditions: Listeria monocytogenes, VTU206; inoculated cells 10⁶ cells/ml; medium supplemented with 10% horse blood
Procedure: as §1, §2

E. avium EAY-30 = assay: as above; format: cell-based; conditions: Enterococcus avium, EAY30, inoculated cells 10⁶ cells/ml
Procedure: as §1, §2

M.catarrhalis ATCC 25238 = assay: as above; format: cell-based; conditions: Moraxella catarrhalis, ATCC25238; inoculated cells 10⁶ cells/ml; medium supplemented with 10% horse blood
Procedure: as §1, §2

E. faecium EFMY-28 = assay: as above; format: cell-based; conditions: Enterococcus faecium, EFMY28; inoculated cells 10⁶ cells/ml
Procedure: as §1, §2

P. mirabilis IFO 3849 = assay: as above; format: cell-based; conditions: Proteus mirabilis, IFO3849; inoculated cells 10⁶ cells/ml
Procedure: as §1, §2

S. pneumoniae Type-III = assay: as above; format: cell-based; conditions: Streptococcus pneumoniae; inoculated cells 10⁶ cells/ml; medium supplemented with 10% horse blood
Procedure: as §1, §2

[9] = system: Staphylococcus aureus FDA 209P; assay: as above; format: cell-based; conditions: FDA209P, inoculated cells 10⁶ cells/ml
Procedure: as §1, §2

Shigella flexneri EW-10 = assay: as above; format: cell-based; conditions: EW10, inoculated cells 10⁶ cells/ml
Procedure: as §1, §2

[10] = system: Citrobacter freundii IFO 12681; assay: as above; format: cell-based; conditions: IFO12681, inoculated cells 10⁶ cells/ml
Procedure: as §1, §2

male ICR mice = assay: Preliminary micronucleus test; format: in vivo; conditions: for Emergence of micronucleus in polychromatic cells compared with the control group: after 24 hours, Example 5: in the dose of 1,000 mg/kg or above
Procedure: A preliminary micronucleus test was performed by oral administration to male ICR mice. […]

S. aureus Smith [11] = assay: MIC of the infectious bacteria used for experimental infection; format: cell-based; conditions: Staphylococcus aureus; infectious strain of the mouse protection test
Procedure: as §1
(§3) Experimental infection was caused by intraperitoneal inoculation of respective bacteria to male mice. One hour after the inoculation, a test compound was orally administered to the mice. The therapeutic effect of each test compound was evaluated by reference to the 50% effective dose (ED₅₀) which was based on the survival ratio at 7 days after the administration according to the probit method [Proc. Soc. Exp. Med., Vol. 57, p 261-264 (1944)]. The minimum inhibitory concentration (MIC) of the infectious bacteria used was also determined. […]

E. coli KC-14 [12] = assay: as above; format: cell-based; conditions: Escherichia coli, KC14; infectious strain of the mouse protection test
Procedure: as §1, §3

S. aureus MRSA Y-238 [13] = assay: as above; format: cell-based; conditions: Staphylococcus aureus, infectious strain of the mouse protection test
Procedure: as §1, §3

S. aureus Smith [14] = assay: Protection of mice from experimental infection; format: in vivo; conditions: male mice; intraperitoneal inoculation 2.8×10⁶ cells/mouse (123×LD₅₀); oral administration one hour after inoculation; survival ratio at 7 days, probit method
Procedure: as §3

E. coli KC-14 [15] = assay: Protection of mice from experimental infection; format: in vivo; conditions: Table 3-1: male mice; intraperitoneal inoculation 5.0×10⁶ cells/mouse (744×LD₅₀); oral administration one hour after inoculation; survival ratio at 7 days
Procedure: as §3

S. aureus MRSA Y-238 [16] = assay: Protection of mice from experimental infection; format: in vivo; conditions: Table 3-1: male mice; intraperitoneal inoculation 7.5×10⁶ cells/mouse (185×LD₅₀); oral administration one hour after inoculation; survival ratio at 7 days
Procedure: as §3

[17] = system: Bacteroides fragilis GAI 5560; assay: Antibacterial effect against specific bacteria (MIC); format: cell-based; conditions: GAI5560, same manner as Experimental Example 1
Procedure: as §1
(§4) In the same manner as in Experimental Example 1, the antibacterial effect against specific bacteria such as Chlamydia, Mycoplasma and acid-fast bacteria and anaerobic bacteria was determined.

[18] = system: Mycobacterium smegmatis IFO 13167; assay: as above; format: cell-based; conditions: Mycolicibacterium smegmatis, IFO13167; same manner as Experimental Example 1
Procedure: as §1, §4

[19] = system: Mycoplasma pneumoniae ATCC 29343; assay: as above; format: cell-based; conditions: ATCC29343, same manner as Experimental Example 1
Procedure: as §1, §4

[20] = system: Chlamydia trachomatis D/UW-3Cx; assay: as above; format: cell-based; conditions: same manner as Experimental Example 1
Procedure: as §1, §4

[21] = system: Ureaplasma urealyticum ATCC 27618; assay: as above; format: cell-based; conditions: ATCC27618, same manner as Experimental Example 1
Procedure: as §1, §4

SMILES	MIC (K.pneumoniae DT-S)	MIC (P.aeruginosa U-31)	MIC [1]	MIC [2]	MIC (S. aureus No.88)	MIC [3]	MIC [4]	MIC [5]	MIC [6]	MIC [7]	MIC [8]	MIC (L.monocytogenes VTU-206)	MIC (E. avium EAY-30)	MIC (M.catarrhalis ATCC 25238)	MIC (E. faecium EFMY-28)	MIC (P. mirabilis IFO 3849)	MIC (S. pneumoniae Type-III)	MIC [9]	MIC (Shigella flexneri EW-10)	MIC [10]	further results
COc1c(N2CC[C@](N)(CF)C2)c(F)cc2c(=O)c(C(=O)O)cn(C3CC3)c12 [Example 5, (R)-7-(3-amino-3-fluoromethylpyrrolidin-1-yl)-1-cyclopropyl-6-fluoro-1,4-dihydro-8-methoxy-4-oxo-3-quinolinecarboxylic acid]	0.05 µg/mL (≈ 0.127 µM)	0.39 µg/mL (≈ 0.991 µM)	0.2 µg/mL (≈ 0.508 µM)	0.2 µg/mL (≈ 0.508 µM)	0.78 µg/mL (≈ 1.98 µM)	0.012 µg/mL (≈ 0.0305 µM)	0.025 µg/mL (≈ 0.0636 µM)	0.39 µg/mL (≈ 0.991 µM)	0.012 µg/mL (≈ 0.0305 µM)	0.025 µg/mL (≈ 0.0636 µM)	0.05 µg/mL (≈ 0.127 µM)	0.1 µg/mL (≈ 0.254 µM)	0.1 µg/mL (≈ 0.254 µM)	0.012 µg/mL (≈ 0.0305 µM)	0.1 µg/mL (≈ 0.254 µM)	0.2 µg/mL (≈ 0.508 µM)	0.012 µg/mL (≈ 0.0305 µM)	≤ 0.006 µg/mL	0.012 µg/mL (≈ 0.0305 µM)	0.05 µg/mL (≈ 0.127 µM)	Emergence of micronucleus in polychromatic cells compared with the control group (male ICR mice; oral): showed significant increase in emergence frequency of micronucleus; Emergence of micronucleus (%) (male ICR mice; oral, dose 500 mg/kg): 0.45±0.28 %; Emergence of micronucleus (%) (male ICR mice; oral, dose 1000 mg/kg): 1.45±1.45 %; Emergence of micronucleus (%) (male ICR mice; oral, dose 2000 mg/kg): 2.38±0.85 %
COc1c(N2CC[C@@](N)(CF)C2)c(F)cc2c(=O)c(C(=O)O)cn(C3CC3)c12 [Example 6, (S)-7-(3-amino-3-fluoromethylpyrrolidin-1-yl)-1-cyclopropyl-6-fluoro-1,4-dihydro-8-methoxy-4-oxo-3-quinoline carboxylic acid]	0.05 µg/mL (≈ 0.127 µM)	0.39 µg/mL (≈ 0.991 µM)	0.2 µg/mL (≈ 0.508 µM)	0.2 µg/mL (≈ 0.508 µM)	0.39 µg/mL (≈ 0.991 µM)	≤ 0.006 µg/mL	0.025 µg/mL (≈ 0.0636 µM)	0.39 µg/mL (≈ 0.991 µM)	0.012 µg/mL (≈ 0.0305 µM)	0.025 µg/mL (≈ 0.0636 µM)	0.05 µg/mL (≈ 0.127 µM)	0.1 µg/mL (≈ 0.254 µM)	0.1 µg/mL (≈ 0.254 µM)	0.012 µg/mL (≈ 0.0305 µM)	0.2 µg/mL (≈ 0.508 µM)	0.2 µg/mL (≈ 0.508 µM)	0.025 µg/mL (≈ 0.0636 µM)	≤ 0.006 µg/mL	0.012 µg/mL (≈ 0.0305 µM)	0.1 µg/mL (≈ 0.254 µM)	MIC (S. aureus Smith [11]): ≤ 0.006 µg/mL; MIC (E. coli KC-14 [12]): 0.012 µg/mL; MIC (S. aureus MRSA Y-238 [13]): 0.39 µg/mL; ED₅₀ (mg/mouse) (95% confidence limit) (S. aureus Smith [14]): 0.036(0.025-0.052) mg/mouse; ED₅₀ (mg/mouse) (95% confidence limit) (E. coli KC-14 [15]): 0.011(0.008-0.015) mg/mouse; ED₅₀ (mg/mouse) (95% confidence limit) (S. aureus MRSA Y-238 [16]): 1.54(1.103-2.151) mg/mouse; MIC [17]: 0.05 µg/mL (≈ 0.127 µM); MIC [18]: 0.1 µg/mL (≈ 0.254 µM); MIC [19]: 0.025 µg/mL (≈ 0.0636 µM); MIC [20]: 0.012 µg/mL (≈ 0.0305 µM); MIC [21]: 0.1 µg/mL (≈ 0.254 µM); Emergence of micronucleus in polychromatic cells compared with the control group (male ICR mice; oral): did not show significant difference in emergence of micronucleus; Emergence of micronucleus (%) (male ICR mice; oral, dose 500 mg/kg): 0.16±0.16%; Emergence of micronucleus (%) (male ICR mice; oral, dose 1000 mg/kg): 0.16±0.11%; Emergence of micronucleus (%) (male ICR mice; oral, dose 2000 mg/kg): 0.26±0.04%
CO[C@@]12[C@H](COC(N)=O)C3=C(C(=O)C(C)=C(N)C3=O)N1C[C@@H]1N[C@@H]12 [MMC, mitomycin C, reference compound]																					Emergence of micronucleus (%) (male ICR mice; dose 1 mg/kg (positive control)): 2.36±1.52 %

Reference: patent EP0677522A1, “8-METHOXYQUINOLONECARBOXYLIC ACID DERIVATIVE” (priority 1992, dated 1994)
